According to Sander's compilation of Henry's law constants:
Blank lines part the entries; values can stand above or below the compound they belong to.

Experiment: Henry solubility constant Hcp at 298.15 K (mol/(m3 Pa))
[1] = reference: Bakierowska and Trzeszczyński (2003)
[2] = reference: Warner et al. (1980)
[3] = reference: Murphy et al. (1983a)
[4] = reference: Charles and Destaillats (2005)

Structure (SMILES): C#CCBr [3-bromo-1-propyne]
Henry solubility constant Hcp (reference: Yates and Gan (1998)): 0.0088

Henry solubility constant Hcp (reference: Gibbs et al. (1991)): 6200
Structure (SMILES): CC(=O)N1CCCC1 [N-acetylpyrrolidine]

Henry solubility constant Hcp (reference: Kwan (2001)): 0.67
Structure (SMILES): O=C(O)C(F)(F)C(F)(F)C(F)(F)C(F)(F)F [perfluoropentanoic acid]

Henry solubility constant Hcp [1]: 0.00023
Structure (SMILES): C1=CCCC1 [cyclopentene]

Structure (SMILES): C=CC=C [1,3-butadiene]
Henry solubility constant Hcp (reference: Ross and Hudson (1957)): 0.00014

Structure (SMILES): [CH3][Sn]([CH3])([CH3])[CH3] [tetramethylstannane]
Henry solubility constant Hcp (reference: Abraham and Nasehzadeh (1981)): 9.4e-06

Structure (SMILES): COP(=O)(OC)C(O)C(Cl)(Cl)Cl (stereo not given)
Henry solubility constant Hcp (reference: Kawamoto and Urano (1989)): > 810

Structure (SMILES): c1cc2c3c(cccc3c1)CC2 [acenaphthene]
Henry solubility constant Hcp (reference: Mackay et al. (1979)): 0.068
Henry solubility constant Hcp [2]: 0.041

Structure (SMILES): FC(F)(F)CCl [2-chloro-1,1,1-trifluoroethane]
Henry solubility constant Hcp (reference: Maaßen (1995)): 0.00037
Henry solubility constant Hcp (reference: Reichl (1995)): 0.00041

Henry solubility constant Hcp (reference: Dohányosová et al. (2004)): 6.9e-05
Structure (SMILES): C1CCCCCCC1 [cyclooctane]

Henry solubility constant Hcp (reference: Xu and Kropscott (2014)): 1.4e-07
Structure (SMILES): C[Si](C)(C)O[Si](C)(C)O[Si](C)(C)O[Si](C)(C)C [decamethyltetrasiloxane]

Structure (SMILES): O=C(O)C(Br)(Br)Br [tribromoethanoic acid]
Henry solubility constant Hcp (reference: Bowden et al. (1998a)): 2900

Henry solubility constant Hcp (reference: Lei et al. (2007)): 0.36
Henry solubility constant Hcp (reference: Shunthirasingham et al. (2013)): 0.38
Structure (SMILES): CCCCCCCO [1-heptanol]

Structure (SMILES): CC(C)CCO[N+](=O)[O-] [3-methyl-1-butanol nitrate]
Henry solubility constant Hcp (reference: Hauff et al. (1998)): 0.005

Structure (SMILES): Clc1ccc(Cl)c(-c2cc(Cl)ccc2Cl)c1 [2,2',5,5'-tetrachlorobiphenyl]
Henry solubility constant Hcp [3]: 0.045

Structure (SMILES): Clc1ccc(Cl)c(-c2cc(Cl)c(Cl)c(Cl)c2Cl)c1 [2,2',3,4,5,5'-hexachlorobiphenyl]
Henry solubility constant Hcp [3]: 0.025

Henry solubility constant Hcp (reference: Wieland et al. (2015)): 0.011
Structure (SMILES): CCOC(=O)CC(C)C [ethyl 3-methylbutanoate]

Henry solubility constant Hcp (reference: Straver and de Loos (2005)): 0.088
Structure (SMILES): CC/C=C\CCC=O [(Z)-4-heptenal]

Structure (SMILES): FC(F)Cl [chlorodifluoromethane]
Henry solubility constant Hcp (reference: Boggs and Buck (1958)): 0.00035
Henry solubility constant Hcp (reference: Chang and Criddle (1995)): 0.00017
Henry solubility constant Hcp (reference: Maaßen (1995)): 0.00035
Henry solubility constant Hcp (reference: Reichl (1995)): 0.00035
Henry solubility constant Hcp (reference: Zheng et al. (1997)): 0.00034

Structure (SMILES): CCSCC [diethyl sulfide]
Henry solubility constant Hcp (reference: Schuhfried et al. (2011)): 0.0035

Structure (SMILES): O=C(O)C(F)(F)C(F)(F)C(F)(F)C(F)(F)C(F)(F)C(F)(F)C(F)(F)F [pentadecafluorooctanoic acid]
Henry solubility constant Hcp (reference: Kutsuna and Hori (2008b)): 0.049
Henry solubility constant Hcp (reference: Kwan (2001)): 2.8
Henry solubility constant Hcp (reference: Li et al. (2007)): 0.4

Structure (SMILES): CC(Cl)CCl (stereo not given) [1,2-dichloropropane]
Henry solubility constant Hcp (reference: Bissonette et al. (1990)): 0.003
Henry solubility constant Hcp (reference: Bobadilla et al. (2003)): 0.0042
Henry solubility constant Hcp [2]: 0.0035

Henry solubility constant Hcp (reference: Simpson and Lovell (1962)): 0.00038
Structure (SMILES): C#CC=C [3-buten-1-yne]

Henry solubility constant Hcp (reference: Schuhfried et al. (2015)): 0.00034
Structure (SMILES): CC1=CC[C@H](C(C)C)C=C1 [(R)-(−)-α-phellandrene]

Structure (SMILES): CCC(C)(C)O [2-methyl-2-butanol]
Henry solubility constant Hcp (reference: Butler et al. (1935)): 0.71
Henry solubility constant Hcp (reference: Fenclová et al. (2010)): 0.72

Henry solubility constant Hcp (reference: Reichl (1995)): 9e-06
Structure (SMILES): FC(F)(Cl)C(F)(F)Cl [1,2-dichlorotetrafluoroethane]

Henry solubility constant Hcp (reference: Jönsson et al. (1982)): 1.8e-06
Henry solubility constant Hcp (reference: Park et al. (1997)): 1.9e-06
Structure (SMILES): CCCCCCCCC [nonane]

Structure (SMILES): CCC(C)O[N+](=O)[O-] (stereo not given) [2-butyl nitrate]
Henry solubility constant Hcp (reference: Hauff et al. (1998)): 0.0044
Henry solubility constant Hcp (reference: Luke et al. (1989)): 0.0063

Henry solubility constant Hcp [1]: 0.00033
Henry solubility constant Hcp (reference: Nielsen et al. (1994)): 0.00025
Structure (SMILES): C1=CCCCC1 [cyclohexene]

Henry solubility constant Hcp (reference: Hartkopf and Karger (1973)): 0.0022
Structure (SMILES): CCCOCCC [dipropyl ether]

Structure (SMILES): S=C=S [carbon disulfide]
Henry solubility constant Hcp (reference: De Bruyn et al. (1995b)): 0.00054
Henry solubility constant Hcp (reference: Elliott (1989)): 0.00062

Structure (SMILES): Clc1cccc(-c2ccccc2Cl)c1 [2,3'-dichlorobiphenyl]
Henry solubility constant Hcp [3]: 0.047

Henry solubility constant Hcp (reference: Schwarz and Wasik (1977)): 0.028
Structure (SMILES): Cc1cccc2ccccc12 [1-methylnaphthalene]

Structure (SMILES): Fc1c(F)c(F)c(F)c(F)c1F [hexafluorobenzene]
Henry solubility constant Hcp (reference: Schröder et al. (2011)): 0.00029

Henry solubility constant Hcp (reference: Nguyen (2013)): 190
Structure (SMILES): C1COCCN1 [1-oxa-4-azacyclohexane]

Structure (SMILES): Brc1ccc(Oc2cc(Br)c(Br)cc2Br)c(Br)c1 [2,2',4,4',5-pentabromodiphenyl ether]
Henry solubility constant Hcp (reference: Cetin and Odabasi (2005)): 1.5
Henry solubility constant Hcp [4]: 0.27
Henry solubility constant Hcp (reference: Long et al. (2017)): 1.5

Structure (SMILES): Clc1ccc(-c2cc(Cl)c(Cl)cc2Cl)c(Cl)c1 [2,2',4,4',5-pentachlorobiphenyl]
Henry solubility constant Hcp [4]: 0.0088
